Assays:
[1] = tested on: human cancer cell lines of colon (Colo205), lung (Hop-62), cervix (SiHa), prostate (DU145, PC3), oral (DWD, HT1080), and breast (MCF7, Zr-75-1) origin; assay: In vitro evaluation of cytotoxic activity in selected human cancer cell lines, 48 h exposure; type: cell-based; conditions: 48 h continuous drug exposure
Protocol: In vitro evaluation of cytotoxic activity. Compounds 6a, 6b, 6d, 6e, 8a and 8b were evaluated for in vitro anticancer activity against nine human tumor cells derived from six cancer types (colon, prostate, oral, lung, cervix and breast cancer) as shown in Table 2. […] Compounds 6a, 6b, 6d, 6e, 8a and 8b have been evaluated for their in vitro cytotoxicity in selected human cancer cell lines of colon (Colo205), lung (Hop-62), cervix (SiHa), prostate (DU145, PC3), oral (DWD, HT1080), and breast (MCF7, Zr-75-1) origin. A protocol of 48 h continuous drug exposure has been used and an […] has been used to estimate cell viability or growth. The results are expressed as percent of cell growth determined relative to that of untreated control cells

CNS cancer cell lines = assay: NCI in vitro anticancer screen, CNS panel; type: cell-based, human; conditions: average of six to nine cell lines; for GI50: Homo sapiens, read-out: Log GI50 (concentration in mol/L causing 50% growth inhibition) (converted)
Protocol: (§1) Compounds described herein were evaluated for in vitro anticancer activity. Particularly the 6a, 6b, 6d, 6h, 8a and 8b compounds were evaluated for in vitro anticancer activity against sixty human tumor cells derived from nine cancer types (leukemia, non-small-cell lung, colon, […], ovarian, prostate, and breast cancer) as shown in (Table 2 and 3). For the compound, dose response curves for each cell line were measured at a minimum of five concentrations at 10 fold dilutions. A protocol of 48 h continuous drug exposure was used and a sulforhodamine B (SRB) protein assay was used to estimate cell viability or growth. The concentration causing 50% cell growth inhibition (GI50), total cell growth inhibition (TGI 0% growth) and 50% cell death (LC50, −50% growth) compared with the control was calculated.

Renal cancer cell lines = assay: NCI in vitro anticancer screen, renal panel; type: cell-based, human; conditions: average of six to nine cell lines; for GI50: Homo sapiens, read-out: Log GI50 (concentration in mol/L causing 50% growth inhibition) (converted)
Protocol: as §1

[2] = tested on: sixty human tumor cells derived from nine cancer types; assay: NCI in vitro anticancer screen, 48 h exposure, SRB assay, mean over all lines; type: cell-based; conditions: for Log10LC50 mean graph midpoint (MG_MID) / Log10GI50 mean graph midpoint (MG_MID) / Log10TGI mean graph midpoint (MG_MID): human tumor cell lines, 48 h exposure; for Log10LC50 mean graph midpoint (MG_MID): 50% cell death; for Log10GI50 mean graph midpoint (MG_MID): 50% cell growth inhibition; for Log10TGI mean graph midpoint (MG_MID): total cell growth inhibition; for GI50: Homo sapiens, wide spectrum of activity against sixty cell lines in nine cell panels
Protocol: as §1

[3] = tested on: Prostate cancer cell lines; assay: NCI in vitro anticancer screen, prostate panel; type: cell-based, human; conditions: average of six to nine cell lines; for GI50: Homo sapiens, read-out: Log GI50 (concentration in mol/L causing 50% growth inhibition) (converted)
Protocol: as §1

Colon cancer cell lines = assay: NCI in vitro anticancer screen, colon panel; type: cell-based, human; conditions: average of six to nine cell lines; for GI50: Homo sapiens, read-out: Log GI50 (concentration in mol/L causing 50% growth inhibition) (converted)
Protocol: as §1

[4] = tested on: Nonsmall-cell-lung cancer cell lines; assay: NCI in vitro anticancer screen, non-small-cell lung panel; type: cell-based, human; conditions: average of six to nine cell lines; for GI50: Homo sapiens, read-out: Log GI50 (concentration in mol/L causing 50% growth inhibition) (converted)
Protocol: as §1

[5] = tested on: duplex-form calf thymus DNA (CT-DNA); assay: Thermal denaturation studies with CT-DNA; type: binding; conditions: [BPD]:[DNA] molar ratio 1:5, CT-DNA 100 μM, ligand 20 μM, pH 7.00
Protocol: Compounds were subjected to thermal denaturation studies with duplex-form calf thymus DNA (CT-DNA). Working solutions in aqueous buffer (10 mM NaH2PO4/Na2HPO4, 1 mM Na2EDTA, pH 7.00+0.01) containing CT-DNA (100 μm in phosphate) and the BPD (20 μm) were prepared by addition of concentrated BPD solutions in DMSO to obtain a fixed [BPD]/[DNA] molar ratio of 1:5. The DNA-BPD solutions were incubated at 37° C. for 0, 18, and 36 h prior to analysis. Samples were monitored at 260 nm using a Beckman DU-7400 spectrophotometer fitted with high performance temperature controller, and heating was applied at 1° C. min-1 in the 40-90° C. range. DNA helix coil transition temperatures (Tm) were obtained from the maxima in the (dA260)/dT derivative plots. Results are given as the mean±standard deviation from three determinations and are corrected for the effects of DMSO co-solvent using a linear correction term. Drug-induced alterations in DNA melting behavior are given by: ΔTm=Tm(DNA+BPD)−Tm(DNA alone), where the Tm value for the BPD-free CT-DNA is 69.0±0.01.

Breast cancer cell lines = assay: NCI in vitro anticancer screen, breast panel; type: cell-based, human; conditions: average of six to nine cell lines; for GI50: Homo sapiens, read-out: Log GI50 (concentration in mol/L causing 50% growth inhibition) (converted)
Protocol: as §1

[6] = tested on: Leukemia cancer cell lines; assay: NCI in vitro anticancer screen, leukemia panel; type: cell-based, human; conditions: average of six to nine cell lines; for GI50: Homo sapiens, read-out: Log GI50 (concentration in mol/L causing 50% growth inhibition) (converted)
Protocol: as §1

[7] = tested on: Ovarian cancer cell lines; assay: NCI in vitro anticancer screen, ovarian panel; type: cell-based, human; conditions: average of six to nine cell lines; for GI50: Homo sapiens, read-out: Log GI50 (concentration in mol/L causing 50% growth inhibition) (converted)
Protocol: as §1

[8] = tested on: Melanoma cancer cell lines; assay: NCI in vitro anticancer screen, melanoma panel; type: cell-based, human; conditions: average of six to nine cell lines; for GI50: Homo sapiens, read-out: Log GI50 (concentration in mol/L causing 50% growth inhibition) (converted)
Protocol: as §1

Row | SMILES | cytotoxicity against some cancer cell lines [1] | GI50 (CNS cancer cell lines) [µM] | GI50 (Renal cancer cell lines) [µM] | Log10LC50 mean graph midpoint (MG_MID) [2] | Log10GI50 mean graph midpoint (MG_MID) [2] | Log10TGI mean graph midpoint (MG_MID) [2] | GI50 [3] [µM] | GI50 (Colon cancer cell lines) [µM] | GI50 [4] [µM] | ΔTm after incubation at 37° C. for 0 h [5] [°C] | ΔTm after incubation at 37° C. for 18 h [5] [°C] | ΔTm after incubation at 37° C. for 36 h [5] [°C] | GI50 (Breast cancer cell lines) [µM] | GI50 [6] [µM] | GI50 [7] [µM] | GI50 [8] [µM] | further results
1 | CC(C)(C)c1cn2cccc(C(=O)N3CCN(CC(=O)Nc4ccc(Cl)cc4C(=O)c4ccccc4Cl)CC3)c2n1 [Compound 6e] | promising cytotoxicity | 1.41 | 1.05 | −5.39 | −5.93 | −6.28 | 1.35 | 0.589 | 0.661 | 1.9 | 2.3 | 2.8 | 2.14 | 0.851 | 3.55 | 3.47 | –
2 | O=C(CN1CCN(CC(=O)Nc2ccc(Cl)cc2C(=O)c2ccccc2Cl)CC1)Nc1ccc(Cl)cc1C(=O)c1ccccc1Cl [Compound 6f, N1-[4-chloro-2-(2-chlorobenzoyl)phenyl]-2-(4-2-[4-chloro-2-(2-chlorobenzoyl)anilino]-2-oxoethylpiperazino)acetamide] | – | – | – | – | – | – | – | – | – | 1.3 | 2.1 | 3.0 | – | – | – | – | –
3 | O=C(CN1CCN(c2ccccn2)CC1)Nc1ccc(Cl)cc1C(=O)c1ccccc1Cl [Compound 6a, N1-[4-chloro-2-(2-chlorobenzoyl)phenyl]-2-[4-(2-pyridyl)piperazino]acetamide] | promising cytotoxicity | 5.62 | 1.55 | −4.35 | −6.51 | −6.54 | 1.78 | 5.75 | 2.51 | 1.2 | 1.7 | 2.2 | 3.89 | 3.55 | 6.76 | 1.29 | GI50 [2]: < 20 µM
4 | O=C(c1ccccc1)c1cc(Cl)ccc1OCCCCN1CCN(CCCCOc2ccc(Cl)cc2C(=O)c2ccccc2)CC1 [Compound 8b] | – | 4.17 | 2.57 | −5.25 | −6.35 | −5.51 | 3.16 | – | 3.24 | 1.6 | 2.6 | 2.9 | 3.47 | 0.631 | 5.75 | – | GI50 [2]: < 20 µM
5 | O=C(CN1CCN(CCCOc2oc3ccccc3c(=O)c2-c2ccccc2)CC1)Nc1ccc(Cl)cc1C(=O)c1ccccc1Cl [Compound 8a] | promising cytotoxicity | – | – | −5.32 | −6.19 | −6.33 | – | – | – | 1.4 | 2.1 | 2.1 | – | – | – | – | Log GI50 (concentration in mol/L causing 50% growth inhibition) (CNS cancer cell lines): −5.69 mol/L; Log GI50 (concentration in mol/L causing 50% growth inhibition) (Renal cancer cell lines): −5.71 mol/L; Log GI50 (concentration in mol/L causing 50% growth inhibition) [3]: −5.56 mol/L; Log GI50 (concentration in mol/L causing 50% growth inhibition) (Colon cancer cell lines): −5.75 mol/L; Log GI50 (concentration in mol/L causing 50% growth inhibition) [4]: −5.75 mol/L; Log GI50 (concentration in mol/L causing 50% growth inhibition) (Breast cancer cell lines): −5.70 mol/L; Log GI50 (concentration in mol/L causing 50% growth inhibition) [6]: −6.11 mol/L; Log GI50 (concentration in mol/L causing 50% growth inhibition) [7]: −5.80 mol/L; Log GI50 (concentration in mol/L causing 50% growth inhibition) [8]: −5.79 mol/L
6 | COc1ccccc1N1CCN(CC(=O)Nc2ccc(Cl)cc2C(=O)c2ccccc2Cl)CC1 [Compound 6c, N1-[4-chloro-2-(2-chlorobenzoyl)phenyl]-2-[4-(2-methoxyphenyl)piperazino]acetamide] | promising cytotoxicity | – | – | – | – | – | – | – | – | 1.4 | 1.6 | 2.3 | – | – | – | – | –
7 | COc1cc(/C=C/C(=O)c2ccc(F)cc2)ccc1OCCCN1CCN(CC(=O)Nc2ccc(Cl)cc2C(=O)c2ccccc2Cl)CC1 [Compound 8] | – | – | – | – | – | – | – | – | – | 1.5 | 2.3 | 2.4 | – | – | – | – | –
8 | O=C(CN1CCN(CCCN2CCN(CC(=O)Nc3ccc(Cl)cc3C(=O)c3ccccc3Cl)CC2)CC1)Nc1ccc(Cl)cc1C(=O)c1ccccc1Cl [Compound 6g] | – | – | – | – | – | – | – | – | – | 1.6 | 2.6 | 2.9 | – | – | – | – | –
9 | COc1cc2c(cc1O)N=CC1CCCN1C2=O (stereo not drawn) [DC-81, reference compound] | – | – | – | – | – | – | – | – | – | 0.3 | 0.7 | – | – | – | – | – | –
10 | O=C(CN1CCN(c2ncccn2)CC1)Nc1ccc(Cl)cc1C(=O)c1ccccc1Cl [Compound 6b, N1-[4-chloro-2-(2-chlorobenzoyl)phenyl]-2-[4-(2-pyrimidinyl)piperazino]acetamide] | – | 5.89 | 5.62 | −5.73 | −6.57 | −6.89 | 16.6 | 2.14 | 3.63 | 1.5 | 2.1 | 2.6 | 6.76 | 5.5 | 5.75 | 1.78 | –
